Reference: patent US9061004B2, “15-PGDH in colon cancer” (Case Western Reserve University, priority 2009, dated 2015)

Experiments:
[1] = system: 15-PGDH mRNA; details: cited from earlier work
[2] = system: PGE2; assay: Colonic mucosal PGE2 levels by LC/MS/MS after 2 weeks of celecoxib diet; format: in vivo, mouse; details: 2 weeks celecoxib diet, mean ± SEM
Experimental: To further investigate the mechanism of celecoxib's dependence on 15-PGDH, we determined PGE2 levels in colonic mucosa of FVB mice under different experimental conditions. Consistent with the role of 15-PGDH in mediating prostaglandin degradation, 15-PGDH gene knockout essentially doubled FVB colonic PGE2 levels (9.1±1.5 ng/mg protein in knockouts versus 5.70±0.8 ng/mg protein in controls, P=0.04) (FIG. 1D). […] In contrast, in 15-PGDH knockout mice the biochemical activity of celecoxib was much attenuated, with the drug lowering PGE2 levels to only 4.7±0.8 ng/mg protein. […] In overview, the efficacy of celecoxib in lowering colonic PGE2 levels in these different models closely paralleled the drug's anti-tumor activity (FIG. 1D versus FIG. 1A, 1B), and mice that lacked 15-PGDH equally acquired resistance to celecoxib's biochemical activity of lowering colonic PGE2 and to celecoxib's phenotypic effect of preventing colon tumors. Celecoxib resistance of 15-PGDH null mice was not due to any change in drug absorption or catabolism, as tissue levels of celecoxib were indistinguishable between drug treated 15-PGDH wild-type and null mice (39.5±9.7 versus 37.7±7.6 ng/mg protein, P=0.7) (FIG. 2A). […] Rather, the effective depletion of colonic PGE2 required the COX-2 inhibitor drug to act in concert with the independent prostaglandin degrading activity of 15-PGDH. […]

[3] = system: colorectal adenomas; assay: Adenoma Prevention with Celecoxib (APC) trial, recurrent adenomas at 36 months; format: in vivo, human; details: 16 individuals, 36 months of daily celecoxib
Excerpt: To test this hypothesis, we examined frozen biopsies of rectal mucosa obtained from 16 individuals at the time of their enrollment in the Adenoma Prevention with Celecoxib (APC) trial (Bertagnolli, M. M. et al., (2006) N Engl J Med 355, 873-84). These individuals were all at high risk for colon adenoma development based on having had multiple colon adenomas and/or adenomas greater than 5 mm in diameter prior to their enrollment. Following clearing of their colonic adenomas by colonoscopy, each individual received 36-months of daily treatment with celecoxib (Bertagnolli, M. M. et al., (2006) N Engl J Med 355, 873-84). […] In total 9 new adenomas were detected in these patients (FIG. 3). 15-PGDH levels among individuals who developed new adenomas were lower than 15-PGDH levels among individuals who remained adenoma free (P=0.04) (FIG. 3). […] The relationship of low 15-PGDH level to celecoxib resistance becomes even stronger if analyzed in terms of the numbers of new adenomas that individuals developed, with 8 of the 9 adenomatous polyps that recurred during celecoxib treatment arising in individuals with colonic 15-PGDH values below the cohort median (P=0.01), and with all 9 new adenomas arising in individuals with colonic 15-PGDH below the cohort mean (P=0.001) (FIG. 3). […]

[4] = Celecoxib tissue levels in colonic mucosa by LC/MS/MS; format: in vivo, mouse; details: 2 weeks celecoxib supplemented diet, mean ± SEM
Experimental: Mouse studies were conducted in the Case Animal Resource Center under a protocol approved by the Institutional Animal Care and Use Committee. 15-Hydroxyprostaglandin dehydrogenase (15-PGDH) knockout mice on a C57BL/6J background were generated as described previously (Myung, S. J. et al., (2006) Proc Natl Acad Sci USA 103, 12098-102; Coggins, K. G. et al, (2002) Nat Med 8, 91-2) and were bred to generation F8 onto an FVB/N (Jackson Laboratory, Bar Harbor, Me.) background, with genotyping done as previously described (Myung, S. J. et al., (2006) Proc Natl Acad Sci U S A 103, 12098-102). 15-PGDH +/− mice generation F8 were intercrossed and siblings of 15-PGDH +/+ and −/− genotypes were selected out for studies with AOM and celecoxib. Eight- to 12-week-old mice were administered AOM by i.p. injection once weekly for 6 weeks at 10mg/kg dose (Sigma Chemical Co., St. Louis, Mo.). Mice were euthanized 24 weeks after the last AOM injection. […]
Following 2 weeks of control or celecoxib supplemented diet mice were euthanized. […] The celecoxib level in the samples was determined by LC/MS/MS. […] Celecoxib was detected and quantified by operating the mass spectrometer in electrospray negative ion mode and monitoring the transition m/z 380.2>316.1. Quantification was done by comparing the sample peak areas to a standard curve and concentration of celecoxib was normalized by protein concentration.

[5] = system: AOM induced colon tumors; assay: AOM induced colon tumor development in FVB mice on dietary celecoxib; format: in vivo, mouse; details: for AOM induced colon tumors per mouse / AOM induced large colon tumors (>1 mm) per mouse: mean ± SEM
Excerpt: To conduct this study FVB mice were selected, chosen because at baseline this mouse strain is sensitive to AOM induced colon tumors (Nambiar, P. R. et al., (2003) Int J Oncol 22, 145-50). In 15-PGDH wild-type FVB mice, AOM induced 2.3±0.4 tumors per mouse colon (FIG. 1A, 1C), which on histology review were all adenomatous lesions. As in human trials, administering dietary celecoxib protected wild-type FVB mice against colon tumor development, reducing adenoma development to 0.7±0.3 tumors per mouse (P=0.003) (FIG. 1A, 1C). Furthermore, while nearly all tumors arising in control mice exceeded 1 mm in size, tumors in celecoxib treated mice rarely reached this size (2.2±0.4 versus 0.3±0.1, P<0.0001) (FIG. 1B).
Dietary celecoxib could thus near completely protect wild-type FVB mice from developing colon tumors. […] Thus, celecoxib treated 15-PGDH null mice developed 5.5-fold more colon adenomas than did their celecoxib treated 15-PGDH wild-type littermates (3.9±0.8 versus 0.7±0.3, P=0.0001) (FIG. 1A, 1C). Moreover, all colonic adenomas arising in celecoxib treated knockout mice were large, each exceeding 1 mm in size; whereas, large tumors were nearly completely absent in celecoxib treated 15-PGDH wild-type mice (3.9±0.8 large tumors per knockout mouse versus 0.3±0.1 per wild-type, P=0.0001) (FIG. 1B, 1C). By several measures, 15-PGDH knockout mice were almost completely resistant to the colon tumor prevention effects of celecoxib. […] Moreover, colon tumor development in celecoxib treated 15-PGDH knockout mice actually exceeded that of drug untreated wild-type mice (3.9±0.8 versus 2.2±0.4 respectively, for tumors >1 mm in size, P=0.04; and, 3.9±0.8 versus 2.3±0.4 respectively tumors of any size, P=0.06) (FIG. 1A, 1B). We conclude that celecoxib mediated colon tumor prevention requires concurrent presence of the prostaglandin inactivating activity of colonic 15-PGDH, and that 15-PGDH loss confers in vivo resistance to this drug effect.
Mouse studies were conducted in the Case Animal Resource Center under a protocol approved by the Institutional Animal Care and Use Committee. 15-Hydroxyprostaglandin dehydrogenase (15-PGDH) knockout mice on a C57BL/6J background were generated as described previously (Myung, S. J. et al., (2006) Proc Natl Acad Sci USA 103, 12098-102; Coggins, K. G. et al, (2002) Nat Med 8, 91-2) and were bred to generation F8 onto an FVB/N (Jackson Laboratory, Bar Harbor, Me.) background, with genotyping done as previously described (Myung, S. J. et al., (2006) Proc Natl Acad Sci U S A 103, 12098-102). 15-PGDH +/− mice generation F8 were intercrossed and siblings of 15-PGDH +/+ and −/− genotypes were selected out for studies with AOM and celecoxib. Eight- to 12-week-old mice were administered AOM by i.p. injection once weekly for 6 weeks at 10mg/kg dose (Sigma Chemical Co., St. Louis, Mo.). Mice were euthanized 24 weeks after the last AOM injection. After euthanizing, the colons were opened longitudinally, rinsed with ice-cold PBS, and examined under a dissecting microscope to identify all tumors. Tumors were resected, fixed in 10% neutral buffered formalin, and paraffin-embedded for histologic examination. All mice received an AIN-76A diet (Harlan Teklad, Madison, Wis.). The diet of celecoxib treated mice was supplemented with 1250 mg/kg of this agent (LKT laboratories, St. Paul, Minn.) (Williams, C. S. et al., (2000) Cancer Res 60, 6045-51). In AOM studies, celecoxib supplementation was initiated starting the day of first AOM injection and continued throughout the lifetime of the mouse. In studies of colonic prostaglandin levels celecoxib was administered to a cohort of 8-12 week old mice continuously for 2 weeks, at which time mice were euthanized.
Prostaglandin and celecoxib levels were log transformed in order to be approximately normally distributed for analysis with a generalized linear regression model with contrasts, generating two-sided P-values. […]

Row | Tissue level of celecoxib in colonic mucosa ([4]; 15-PGDH null mice) | Tissue level of celecoxib in colonic mucosa ([4]; 15-PGDH wild-type mice) | Compound | Effect on 15-PGDH mRNA levels [1] | Colonic mucosal PGE2 level ([2]; 15-PGDH knockout FVB mice) | Colonic mucosal PGE2 level ([2]; 15-PGDH wild-type FVB mice) | Total new adenomas detected [3] | AOM induced colon tumors per mouse ([5]; 15-PGDH knockout (null) FVB mice, dietary celecoxib) | AOM induced large colon tumors (>1 mm) per mouse ([5]; 15-PGDH knockout FVB mice, dietary celecoxib) | AOM induced colon tumors per mouse ([5]; 15-PGDH wild-type FVB mice, dietary celecoxib 1250 mg/kg diet) | AOM induced large colon tumors (>1 mm) per mouse ([5]; 15-PGDH wild-type FVB mice, dietary celecoxib) | Prevention of AOM induced tumors >1 mm in size ([5]; FVB mice (15-PGDH wild-type)) | Colon adenomas in celecoxib treated 15-PGDH null mice relative to celecoxib treated wild-type littermates ([5]; null versus wild-type, both celecoxib treated)
1 |  |  | C#Cc1cccc(Nc2ncnc3cc(OCCOC)c(OCCOC)cc23)c1 [erlotinib] | induce 15-PGDH mRNA levels |  |  |  |  |  |  |  |  | 
2 | 37.7±7.6 ng/mg protein | 39.5±9.7 ng/mg protein | Cc1ccc(-c2cc(C(F)(F)F)nn2-c2ccc(S(N)(=O)=O)cc2)cc1 [celecoxib] |  | 4.7±0.8 ng/mg protein | 1.6±0.4 ng/mg protein | 9 | 3.9±0.8 | 3.9±0.8 large tumors per knockout mouse | 0.7±0.3 tumors per mouse | 0.3±0.1 | 85% | 5.5 fold
